Usually Emax stands for the size of the effect at its maximum, as opposed to the concentration needed.

The results in this text go back to patent US20230295260A1, “GLP RECEPTOR AGONISTS” (HEPTARES THERAPEUTICS LIMITED, priority 2020, published 2023).

Where two headings read alike, the source gives them in different places. Non-standard residues stand in square brackets, D forms with d. Residues, ends and D or L forms follow the SMILES beside them. ξ: configuration not given here. *: point of attachment. Malonyl(2,2-Me2,histaminyl) = CC(C)(C(=O)NCCc1cnc[nH]1)C(=O)*; Ala(1H-tetrazol-5-yl) = N[C@@H](Cc1nnn[nH]1)C(=O)O; ξαMePhe(2-F) = CC(N)(Cc1ccccc1F)C(=O)O; Nle = CCCC[C@H](N)C(=O)O; Aib = CC(C)(N)C(=O)O; Alloc = C=CCOC(=O)*

One test concerns the target T1, human GLP1 receptor (Homo sapiens, UniProt P43220).
T1 construct: expressed in transfected cells; host or cells: HEK cells, BacMam virus transduction
Put plainly: cAMP accumulation assay (HTRF), functional agonism of human GLP1 receptor in HEK cells. It counts as cell-based. To be noted: for EC50: read-out: Human GLP-1R agonist cAMP pEC50 (converted). In general terms: cAMP levels reflect the balance of adenylyl cyclase and phosphodiesterase activity.

The target of another test is T2, human GLP2 receptor (Homo sapiens, UniProt O95838).
T2 sequence (O95838 1-553): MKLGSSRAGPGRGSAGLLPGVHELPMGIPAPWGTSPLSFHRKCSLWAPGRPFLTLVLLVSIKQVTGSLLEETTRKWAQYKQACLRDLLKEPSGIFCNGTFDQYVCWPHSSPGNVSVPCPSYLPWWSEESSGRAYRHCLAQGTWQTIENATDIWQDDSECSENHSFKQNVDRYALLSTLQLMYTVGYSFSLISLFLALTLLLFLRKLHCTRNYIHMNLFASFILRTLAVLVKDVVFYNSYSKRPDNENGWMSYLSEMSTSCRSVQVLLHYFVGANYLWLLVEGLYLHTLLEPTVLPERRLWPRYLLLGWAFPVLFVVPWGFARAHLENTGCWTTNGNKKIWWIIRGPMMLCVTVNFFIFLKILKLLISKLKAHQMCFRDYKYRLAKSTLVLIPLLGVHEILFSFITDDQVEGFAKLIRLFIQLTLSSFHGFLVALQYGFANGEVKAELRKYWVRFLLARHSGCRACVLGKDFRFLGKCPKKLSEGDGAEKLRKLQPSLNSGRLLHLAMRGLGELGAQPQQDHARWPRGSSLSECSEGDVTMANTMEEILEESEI
Put plainly: cAMP accumulation assay (HTRF), functional agonism of human GLP2 receptor in HEK cells.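 On all read-outs here: HEK cells transduced via BacMam to express human GLP2 receptor, agonist-stimulated cAMP measured by HTRF after 45 min at 37 °C in HBSS with 0.5 mM IBMX.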 As to conditions: for Emax: HEK293, read-out: Human GLP-2R agonist cAMP Emax.

[1] abbreviates: HEK293, HEK cells, human GLP1 receptor BacMam, 45 min 37° C., read-out: Human GLP-1R agonist cAMP Emax.
Where [2] appears, read: HEK293, read-out: Human GLP-1R agonist cAMP Emax.
[3] abbreviates: HEK cells, human GLP1 receptor BacMam, 45 min 37° C.

T1 sequence (P43220 24-463): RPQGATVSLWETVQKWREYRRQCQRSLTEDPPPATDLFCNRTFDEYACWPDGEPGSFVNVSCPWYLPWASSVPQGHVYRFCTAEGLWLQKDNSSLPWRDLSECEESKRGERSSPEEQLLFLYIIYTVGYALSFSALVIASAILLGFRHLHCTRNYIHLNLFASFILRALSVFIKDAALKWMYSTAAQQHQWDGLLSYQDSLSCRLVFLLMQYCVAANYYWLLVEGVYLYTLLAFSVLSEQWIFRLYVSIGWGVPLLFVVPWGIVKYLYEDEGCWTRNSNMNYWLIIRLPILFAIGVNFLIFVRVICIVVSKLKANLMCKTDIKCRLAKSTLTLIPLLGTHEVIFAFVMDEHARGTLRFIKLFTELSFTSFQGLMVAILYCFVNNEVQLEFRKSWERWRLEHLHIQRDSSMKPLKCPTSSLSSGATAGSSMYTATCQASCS

As to `C=CCOC(=O)NCCCC[C@H](NC(=O)[C@H](CC(C)C)NC(=O)[C@H](CC(=O)O)NC(=O)[C@H](CC(C)C)NC(=O)[C@@H](NC(=O)[C@@H](NC(=O)[C@@H](Cc1ccccc1)NC(=O)[C@H](CCCC)NC(=O)[C@H](CCC(=O)O)NC(=O)[C@H](CC(=O)O)NC(=O)[C@H](CO)NC(=O)C(C)(Cc1ccccc1F)NC(=O)[C@H](CO)NC(=O)CNC(=O)[C@H](CC(=O)O)NC(=O)C(C)(C)C(=O)NCCc1c[nH]cn1)[C@@H](C)O)[C@@H](C)CC)C(=O)N[C@@H](C)C(=O)N[C@@H](C)C(=O)N[C@@H](CCCCN)C(=O)N[C@@H](CC(=O)O)C(=O)N[C@@H](Cc1ccccc1)C(=O)N[C@H](C(=O)N[C@@H](CC(N)=O)C(=O)N[C@@H](Cc1c[nH]c2ccccc12)C(=O)N[C@@H](CC(C)C)C(=O)N[C@H](C(=O)N[C@@H](CCC(N)=O)C(=O)N[C@H](C(=O)N[C@@H](CCCCN)C(=O)N[C@H](C(=O)N[C@H](C(=O)N[C@@H](CC(=O)O)C(N)=O)[C@@H](C)O)[C@@H](C)CC)[C@@H](C)O)[C@@H](C)CC)[C@@H](C)CC` (stereo partly drawn) [Example 4] ({Malonyl(2,2-Me2,histaminyl)}-DGS[ξαMePhe(2-F)]SDE[Nle][dF]TILDLK(Alloc)AAKDFINWLIQTKITD-NH2; C-terminus assumed), the Emax was 98.1% on human GLP1 receptor (setting [1]) and 99.3% at human GLP2 receptor.

On to `C=CCOC(=O)NCCCC[C@H](NC(=O)[C@H](CC(C)C)NC(=O)[C@H](CC(=O)O)NC(=O)[C@H](CC(C)C)NC(=O)C(C)(C)NC(=O)[C@@H](NC(=O)[C@@H](Cc1ccccc1)NC(=O)[C@H](CCCC)NC(=O)[C@H](CCC(=O)O)NC(=O)[C@H](CC(=O)O)NC(=O)[C@H](CO)NC(=O)[C@H](Cc1ccccc1)NC(=O)[C@H](CO)NC(=O)CNC(=O)[C@H](Cc1nn[nH]n1)NC(=O)C(C)(C)C(=O)NCCc1c[nH]cn1)[C@@H](C)O)C(=O)N[C@@H](C)C(=O)N[C@@H](C)C(=O)NC(C)(C)C(=O)N[C@@H](CC(=O)O)C(=O)N[C@@H](Cc1ccccc1)C(=O)N[C@H](C(=O)N[C@@H](CC(N)=O)C(=O)N[C@@H](Cc1c[nH]c2ccccc12)C(=O)N[C@@H](CC(C)C)C(=O)N[C@H](C(=O)N[C@@H](CCC(N)=O)C(=O)N[C@H](C(=O)N[C@@H](CCCCN)C(=O)N[C@H](C(=O)N[C@H](C(=O)N[C@@H](Cc1ccccc1)C(N)=O)[C@@H](C)O)[C@@H](C)CC)[C@@H](C)O)[C@@H](C)CC)[C@@H](C)CC` [Example 5] ({Malonyl(2,2-Me2,histaminyl)}-[Ala(1H-tetrazol-5-yl)]GSFSDE[Nle][dF]T[Aib]LDLK(Alloc)AA[Aib]DFINWLIQTKITF-NH2), for which the Emax at human GLP1 receptor (setting [2]) worked out at 93.6%; on human GLP2 receptor, 103%.

Consider `C=CCOC(=O)NCCCC[C@H](NC(=O)[C@H](C)NC(=O)[C@H](C)NC(=O)[C@H](CCCCNC(=O)OCC=C)NC(=O)[C@H](CC(C)C)NC(=O)[C@H](CC(=O)O)NC(=O)[C@H](CC(C)C)NC(=O)C(C)(C)NC(=O)[C@@H](NC(=O)[C@@H](Cc1ccccc1)NC(=O)[C@H](CCCC)NC(=O)[C@H](CCC(=O)O)NC(=O)[C@H](CC(=O)O)NC(=O)[C@H](CO)NC(=O)[C@H](Cc1ccccc1)NC(=O)[C@H](CO)NC(=O)CNC(=O)[C@H](Cc1nn[nH]n1)NC(=O)C(C)(C)C(=O)NCCc1c[nH]cn1)[C@@H](C)O)C(=O)N[C@@H](CC(=O)O)C(=O)N[C@@H](Cc1ccccc1)C(=O)N[C@H](C(=O)N[C@@H](CC(N)=O)C(=O)N[C@@H](Cc1c[nH]c2ccccc12)C(=O)N[C@@H](CC(C)C)C(=O)N[C@H](C(=O)N[C@@H](CCC(N)=O)C(=O)N[C@H](C(=O)N[C@@H](CCCCN)C(=O)N[C@H](C(=O)N[C@H](C(=O)N[C@@H](Cc1ccccc1)C(N)=O)[C@@H](C)O)[C@@H](C)CC)[C@@H](C)O)[C@@H](C)CC)[C@@H](C)CC` [Example 6] ({Malonyl(2,2-Me2,histaminyl)}-[Ala(1H-tetrazol-5-yl)]GSFSDE[Nle][dF]T[Aib]LDLK(Alloc)AAK(Alloc)DFINWLIQTKITF-NH2), for which the maximal response (Emax) is 96.4% at human GLP1 receptor (setting [1]) and 103% at human GLP2 receptor. Besides, the values for the EC50 at human GLP1 receptor (setting [3]) and at human GLP2 receptor were 10 nM and 0.0316 nM, respectively.

Take `C=CCOC(=O)NCCCC[C@H](NC(=O)[C@H](CC(C)C)NC(=O)[C@H](CC(=O)O)NC(=O)[C@H](CC(C)C)NC(=O)C(C)(C)NC(=O)[C@@H](NC(=O)[C@@H](Cc1ccccc1)NC(=O)[C@H](CCCC)NC(=O)[C@H](CCC(=O)O)NC(=O)[C@H](CC(=O)O)NC(=O)[C@H](CO)NC(=O)[C@H](Cc1ccccc1)NC(=O)[C@H](CO)NC(=O)[C@@H](C)NC(=O)[C@H](Cc1nn[nH]n1)NC(=O)C(C)(C)C(=O)NCCc1c[nH]cn1)[C@@H](C)O)C(=O)N[C@@H](C)C(=O)N[C@@H](C)C(=O)NC(C)(C)C(=O)N[C@@H](CC(=O)O)C(=O)N[C@@H](Cc1ccccc1)C(=O)N[C@H](C(=O)N[C@@H](CC(N)=O)C(=O)N[C@@H](Cc1c[nH]c2ccccc12)C(=O)N[C@@H](CC(C)C)C(=O)N[C@H](C(=O)N[C@@H](CCC(N)=O)C(=O)N[C@H](C(=O)N[C@@H](CCCCN)C(=O)N[C@H](C(=O)N[C@H](C(=O)N[C@@H](Cc1ccccc1)C(N)=O)[C@@H](C)O)[C@@H](C)CC)[C@@H](C)O)[C@@H](C)CC)[C@@H](C)CC` [Example 7] ({Malonyl(2,2-Me2,histaminyl)}-[Ala(1H-tetrazol-5-yl)][dA]SFSDE[Nle][dF]T[Aib]LDLK(Alloc)AA[Aib]DFINWLIQTKITF-NH2): the Emax was 62.2% on human GLP1 receptor (setting [1]) and 102% on human GLP2 receptor. Besides, the EC50 was 39.8 nM at human GLP1 receptor (setting [3]) and 0.01 nM on human GLP2 receptor.

As to `C=CCOC(=O)NCCCC[C@H](NC(=O)[C@H](C)NC(=O)C(C)(C)NC(=O)[C@H](CCCCNC(=O)OCC=C)NC(=O)[C@H](CC(N)=O)NC(=O)[C@H](CC(=O)O)NC(=O)[C@H](CC(C)C)NC(=O)C(C)(C)NC(=O)[C@@H](NC(=O)[C@H](CC(N)=O)NC(=O)[C@H](CCCC)NC(=O)[C@H](CCC(=O)O)NC(=O)[C@H](CC(=O)O)NC(=O)[C@H](CO)NC(=O)[C@H](Cc1ccccc1)NC(=O)[C@H](CO)NC(=O)[C@@H](C)NC(=O)[C@H](Cc1nn[nH]n1)NC(=O)C(C)(C)C(=O)NCCc1c[nH]cn1)[C@@H](C)O)C(=O)N[C@@H](CC(=O)O)C(=O)N[C@@H](Cc1ccccc1)C(=O)N[C@H](C(=O)N[C@@H](CC(N)=O)C(=O)N[C@@H](Cc1c[nH]c2ccccc12)C(=O)N[C@@H](CC(C)C)C(=O)N[C@H](C(=O)N[C@@H](CCC(N)=O)C(=O)N[C@H](C(=O)N[C@@H](CCCNC(=N)N)C(=O)N[C@H](C(=O)N[C@H](C(=O)N[C@@H](Cc1ccccc1)C(N)=O)[C@@H](C)O)[C@@H](C)CC)[C@@H](C)O)[C@@H](C)CC)[C@@H](C)CC` [Example 8] ({Malonyl(2,2-Me2,histaminyl)}-[Ala(1H-tetrazol-5-yl)][dA]SFSDE[Nle]NT[Aib]LDNK(Alloc)[Aib]AK(Alloc)DFINWLIQTRITF-NH2), the Emax on human GLP1 receptor (setting [2]) stood at 93.3%; on human GLP2 receptor, 104%.

With `C=CCOC(=O)NCCCC[C@H](NC(=O)[C@H](CC(C)C)NC(=O)[C@H](CC(=O)O)NC(=O)[C@H](CC(C)C)NC(=O)[C@@H](NC(=O)[C@@H](NC(=O)[C@@H](Cc1ccccc1)NC(=O)[C@H](CCCC)NC(=O)[C@H](CCC(=O)O)NC(=O)[C@H](CC(=O)O)NC(=O)[C@H](CO)NC(=O)[C@H](Cc1ccccc1)NC(=O)[C@H](CO)NC(=O)CNC(=O)[C@H](Cc1nn[nH]n1)NC(=O)C(C)(C)C(=O)NCCc1c[nH]cn1)[C@@H](C)O)[C@@H](C)CC)C(=O)N[C@@H](C)C(=O)N[C@@H](C)C(=O)NC(C)(C)C(=O)N[C@@H](CC(=O)O)C(=O)N[C@@H](Cc1ccccc1)C(=O)N[C@H](C(=O)N[C@@H](CC(N)=O)C(=O)N[C@@H](Cc1c[nH]c2ccccc12)C(=O)N[C@@H](CC(C)C)C(=O)N[C@H](C(=O)N[C@@H](CCC(N)=O)C(=O)N[C@H](C(=O)N[C@@H](CCCCN)C(=O)N[C@H](C(=O)N[C@H](C(=O)N[C@@H](Cc1ccccc1)C(N)=O)[C@@H](C)O)[C@@H](C)CC)[C@@H](C)O)[C@@H](C)CC)[C@@H](C)CC` [Example 9] ({Malonyl(2,2-Me2,histaminyl)}-[Ala(1H-tetrazol-5-yl)]GSFSDE[Nle][dF]TILDLK(Alloc)AA[Aib]DFINWLIQTKITF-NH2), the Emax is 94.1% on human GLP1 receptor (setting [1]) and 102% at human GLP2 receptor. Moreover, the EC50 on human GLP1 receptor (setting [3]) was 20 nM; at human GLP2 receptor, 0.0126 nM.
